Target: T1, human brain-derived dopamine D4 receptor (Homo sapiens, UniProt P21917)
T1 construct: expressed in transfected cells; host or cells: CHO (CHO-K1) or HEK293 cells
T1 sequence (P21917 1-419): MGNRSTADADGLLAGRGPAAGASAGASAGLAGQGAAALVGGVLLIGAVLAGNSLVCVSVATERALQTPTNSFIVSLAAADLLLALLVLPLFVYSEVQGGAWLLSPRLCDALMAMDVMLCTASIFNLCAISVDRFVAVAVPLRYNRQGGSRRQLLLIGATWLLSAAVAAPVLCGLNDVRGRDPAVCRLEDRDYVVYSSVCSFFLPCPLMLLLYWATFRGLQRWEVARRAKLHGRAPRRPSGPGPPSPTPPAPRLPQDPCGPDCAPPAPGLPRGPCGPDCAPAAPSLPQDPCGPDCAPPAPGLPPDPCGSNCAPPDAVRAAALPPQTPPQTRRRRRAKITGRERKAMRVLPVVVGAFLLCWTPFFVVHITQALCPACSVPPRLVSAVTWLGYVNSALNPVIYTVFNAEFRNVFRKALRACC
Test: Agonistic activity in G protein dependent pathway of dopamine D4 receptor (aequorin intracellular calcium luminescence, FDSS)
Type: cell-based
Settings: for EC50: concentration required to achieve a 50% response of Emax, CHO-K1 or HEK293 cells transfected with D4 receptor; for Emax: read-out: Maximal activity on D4 receptor (%)
From the text: The G protein dependent pathway is a pathway for transmitting signals in cells via a second messenger by stimulating a G protein through the binding of guanosine triphosphate (GTP) to the G protein. When GPCRs are activated by the binding of a ligand, a G protein binds to the GPCRs, and thereby GTP binds to a Gα subunit that is one of G protein subunits and a Gγβ subunit is dissociated. The activated Gα subunit regulates intracellular cAMP levels by the activation or inhibition of an adenylate cyclase, and regulates intracellular calcium levels by the activation of phospholipase C to transmit signals in cells.
The agonistic activities of the present compounds in the G protein dependent pathway were evaluated on the basis of intracellular calcium levels as follows. CHO-K1 or HEK293 cell lines transfected with D4 receptor genes were seeded in a 384-well plate, and incubated in a CO2 incubator at 37° C. for 24 hours, and then a solution of the present compound in DMSO was added into cells preloaded with coelenterazine to measure the change in luminescent signals with a FDSS (Hamamatsu Photonics K.K.). […] The agonistic activity of the present compound was calculated according to the measured luminescent signals, as the maximal activity (Emax) of the present compound. EC50 value was calculated as the concentration of the present compound required to achieve a 50% response of Emax.

| SMILES | EC50 | Emax |
| --- | --- | --- |
| c1ccc(CN2CCn3nc(-c4ccccn4)cc3C2)cc1 [Example 1, 5-Benzyl-2-(pyridin-2-yl)-4,5,6,7-tetrahydropyrazolo[1,5-a]pyrazine] | 20 nM | 71% |
| Fc1ccc(CN2CCn3nc(-c4ccccn4)cc3C2)cc1 [Example 2] | 28 nM | 83% |
| c1ccc(-c2cc3n(n2)CCN(Cc2n[nH]c4ccccc24)C3)nc1 [Example 3] | 19 nM | 60% |
| Fc1ccc2[nH]nc(CN3CCn4nc(-c5ccccn5)cc4C3)c2c1 [Example 4] | 17 nM | 60% |
| c1ccc(CN2CCCn3nc(-c4ccccn4)cc3C2)cc1 [Example 8] | 105 nM | 37% |
| Fc1ccc(CN2CCCn3nc(-c4ccccn4)cc3C2)cc1 [Example 9] | 89 nM | 34% |
| c1ccc(-c2cc3n(n2)CCN(Cc2ccc4[nH]ncc4c2)C3)nc1 [Example 13] | 116 nM | 65% |
| c1ccc(-c2cc3n(n2)CCN(Cc2cccc4[nH]cnc24)C3)nc1 [Example 14] | 84 nM | 46% |
| c1ccc(-c2cc3n(n2)CCN(Cc2ccc4cn[nH]c4c2)C3)nc1 [Example 15] | 9.2 nM | 62% |
| COc1ccccc1-c1cc2n(n1)CCN(Cc1ccc(C)nc1N)C2 [Example 16] | 138 nM | 51% |
| COc1ccccc1-c1cc2n(n1)CCN(Cc1cn3ccccc3n1)C2 [Example 17] | 25 nM | 52% |
| COc1ccccc1-c1cc2n(n1)CCN(Cc1ccc(F)c(C#N)c1)C2 [Example 18] | 60 nM | 83% |
| Cc1ccc(CN2CCn3nc(-c4ccccn4)cc3C2)c(N)n1 [Example 19] | 54 nM | 63% |
| O=C1CCc2ccc(CN3CCn4nc(-c5ccccn5)cc4C3)cc2N1 [Example 20] | 51 nM | 42% |
| Nc1nc(C(F)(F)F)ccc1CN1CCn2nc(-c3ccccn3)cc2C1 [Example 21] | 47 nM | 59% |
| CN1Cc2ccc(CN3CCn4nc(-c5ccccn5)cc4C3)cc2C1 [Example 23, 5-[(2-Methyl-2,3-dihydro-1H-isoindol-5-yl)methyl]-2-(pyridin-2-yl)-4,5,6,7-tetrahydropyrazolo[1,5-a]pyrazine] | 25 nM | 71% |
| COc1ccccc1-c1cc2n(n1)CCN(Cc1ccc(F)cc1F)C2 [Example 25, 5-(2,4-Difluorobenzyl)-2-(2-methoxyphenyl)-4,5,6,7-tetrahydropyrazolo[1,5-a]pyrazine] | 100 nM | 57% |
| Cc1ccccc1CN1CCn2nc(-c3ccccn3)cc2C1 [Example 26] | 61 nM | 49% |
| Cc1cccc(CN2CCn3nc(-c4ccccn4)cc3C2)c1 [Example 27] | 0.5 nM | 62% |
| N#Cc1ccc(CN2CCn3nc(-c4ccccn4)cc3C2)cc1 [Example 29] | 38 nM | 48% |

| SMILES | EC50 | Emax |
| --- | --- | --- |
| Cc1ncc(CN2CCn3nc(-c4ncccc4C)cc3C2)c(N)n1 [Example 30, 2-Methyl-5-{[2-(3-methylpyridin-2-yl)-6,7-dihydropyrazolo[1,5-a]pyrazin-5(4H)-yl]methyl}pyrimidine-4-amine] | 79 nM | 53% |
| Cc1c(-c2ccccn2)nn2c1CN(Cc1ccccc1)CCC2 [Example 32, 5-Benzyl-3-methyl-2-(pyridin-2-yl)-5,6,7,8-tetrahydro-4H-pyrazolo[1,5-a][1,4]diazepine] | 19 nM | 52% |
| Fc1c(-c2ccccn2)nn2c1CN(Cc1ccccc1)CCC2 [Example 33, 5-Benzyl-3-fluoro-2-(pyridin-2-yl)-5,6,7,8-tetrahydro-4H-pyrazolo[1,5-a][1,4]diazepine] | 63 nM | 41% |
| Cc1cccnc1-c1cc2n(n1)CCN(Cc1ccc3cn[nH]c3c1)C2 [Example 34] | 5.3 nM | 73% |
| Cc1cccnc1-c1cc2n(n1)CCN(Cc1n[nH]c3ccccc13)C2 [Example 35] | 4.3 nM | 87% |
| N#Cc1cc(CN2CCn3nc(-c4ccccn4)cc3C2)ccc1F [Example 36] | 40 nM | 77% |
| Cc1n[nH]c2ccc(CN3CCn4nc(-c5ccccn5)cc4C3)cc12 [Example 37] | 62 nM | 54% |
| c1ccc(-c2cc3n(n2)CCN(Cc2ccc4occc4c2)C3)nc1 [Example 39] | 35 nM | 69% |
| Cc1cccnc1-c1cc2n(n1)CCN(Cc1n[nH]c3c(F)cccc13)C2 [Example 40] | 11 nM | 70% |
| Cc1cccnc1-c1cc2n(n1)CCN(Cc1ccc3c(c1)NC(=O)CC3)C2 [Example 41] | 46 nM | 54% |
| Cc1nc2c(CN3CCn4nc(-c5ccccn5)cc4C3)cccc2[nH]1 [Example 42] | 100 nM | 50% |
| Cc1ccc(CN2CCn3nc(-c4ncccc4C)cc3C2)c(N)n1 [Example 43] | 15 nM | 77% |
| Cc1cccnc1-c1cc2n(n1)CCN(Cc1n[nH]c3ccc(F)cc13)C2 [Example 44] | 26 nM | 98% |
| Cc1cccnc1-c1cc2n(n1)CCN(Cc1n[nH]c3cccc(C)c13)C2 [Example 45] | 157 nM | 54% |
| Cc1ncc(CN2CCn3nc(-c4ncccc4F)cc3C2)c(N)n1 [Example 46] | 45 nM | 59% |
| Cc1cccnc1-c1cc2n(n1)CCN(Cc1ccc(C(F)(F)F)cc1F)C2 [Example 47] | 71 nM | 65% |
| Cc1cccnc1-c1cc2n(n1)CCN(Cc1ccc(C(F)(F)F)c(F)c1)C2 [Example 48] | 96 nM | 50% |
| Cc1cccnc1-c1cc2n(n1)CCN(Cc1ccc(CF)cc1)C2 [Example 49] | 19 nM | 84% |
| Cc1ccc(CN2CCn3nc(-c4ncccc4F)cc3C2)cn1 [Example 50] | 61 nM | 41% |
| O=C1NCc2cc(CN3CCn4nc(-c5ccccn5)cc4C3)ccc21 [Example 51] | 70 nM | 32% |

| SMILES | EC50 | Emax |
| --- | --- | --- |
| Cc1cccnc1-c1cc2n(n1)CCN(Cc1ccc(OC(F)(F)F)cc1C#N)C2 [Example 52] | 34 nM | 58% |
| Cc1ccc(CN2CCn3nc(-c4ncccc4C)cc3C2)cc1 [Example 53] | 10 nM | 99% |
| Cc1cccc(CN2CCn3nc(-c4ncccc4C)cc3C2)c1 [Example 54] | 7 nM | 80% |
| Cc1cccnc1-c1cc2n(n1)CCN(Cc1ccc(C(F)(F)F)cc1)C2 [Example 55] | 67 nM | 92% |
| Cc1cccnc1-c1cc2n(n1)CCN(Cc1ccc(Cl)cc1)C2 [Example 56] | 12 nM | 78% |
| Cc1cccnc1-c1cc2n(n1)CCN(Cc1ccc(C#N)cc1)C2 [Example 57] | 83 nM | 77% |
| Cc1cccnc1-c1cc2n(n1)CCN(Cc1ccc(F)cc1)C2 [Example 58] | 22 nM | 81% |
| Cc1cccnc1-c1cc2n(n1)CCN(Cc1cccc(Cl)c1)C2 [Example 59] | 36 nM | 58% |
| Cc1cccnc1-c1cc2n(n1)CCN(Cc1cccc(C(F)(F)F)c1)C2 [Example 60] | 99 nM | 59% |
| Cc1cccnc1-c1cc2n(n1)CCN(Cc1cccc(F)c1)C2 [Example 61] | 34 nM | 57% |
| Cc1cccnc1-c1cc2n(n1)CCN(Cc1cccc(C#N)c1)C2 [Example 62] | 25 nM | 89% |
| Cc1cccnc1-c1cc2n(n1)CCN(Cc1cccc(OC(F)(F)F)c1)C2 [Example 63] | 102 nM | 40% |
| Cc1cccnc1-c1cc2n(n1)CCN(Cc1cc(OC(F)(F)F)ccc1F)C2 [Example 64] | 108 nM | 42% |
| Cc1cccnc1-c1cc2n(n1)CCN(Cc1ccc([N+](=O)[O-])cc1)C2 [Example 65] | 20 nM | 69% |
| Cc1cccnc1-c1cc2n(n1)CCN(Cc1ccc(OC(F)(F)F)cc1F)C2 [Example 66] | 140 nM | 52% |
| Cc1ccc(CN2CCn3nc(-c4ncccc4C)cc3C2)cn1 [Example 67] | 27 nM | 64% |
| Fc1cccnc1-c1cc2n(n1)CCN(Cc1ccc(C(F)(F)F)cc1)C2 [Example 68] | 69 nM | 64% |
| N#Cc1ccc(CN2CCn3nc(-c4ncccc4F)cc3C2)cc1 [Example 69] | 59 nM | 50% |
| Cc1cccnc1-c1cc2n(n1)CCN(Cc1ccc3c(c1)N(C)C(=O)CC3)C2 [Example 70] | 85 nM | 45% |

From patent publication US20160318933A1, “FUSED PYRAZOLE DERIVATIVE” (SUMITOMO DAINIPPON PHARMA CO., LTD., priority 2013, published 2016)
